Results from patent US6248739A, “Quinolinecarboxamides as antiviral agents” (Pharmacia & Upjohn Company, priority 1999, dated 2001).
Like-named read-outs stand apart in the source and are kept apart here.

How the values were obtained:
HCMV polymerase = molecular target: T1, HCMV polymerase (Human cytomegalovirus, UniProt P08546); assay: biochemical
T1 construct: made in house; host or cells: recombinant baculovirus-infected SF-9 insect cells
Summary of the method: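 Scintillation proximity assay with baculovirus/SF-9-expressed HCMV polymerase, 90 nM ³H-dTTP and 6 nM biotinylated poly(dA)-oligo(dT) in HEPES pH 7.5/KCl/MgCl2/BSA, ±2 mM CHAPS, 25 or 37 °C, 30 min for HCMV. Modified version: compounds diluted in 100% DMSO, 4.5 mM DTT added. IC50 from linear regression.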

HSV polymerase = HSV polymerase (Human herpesvirus 1, UniProt P04293); assay: HSV polymerase assay (Table 1); type: biochemical
HSV polymerase, sequence (P04293 whole entry): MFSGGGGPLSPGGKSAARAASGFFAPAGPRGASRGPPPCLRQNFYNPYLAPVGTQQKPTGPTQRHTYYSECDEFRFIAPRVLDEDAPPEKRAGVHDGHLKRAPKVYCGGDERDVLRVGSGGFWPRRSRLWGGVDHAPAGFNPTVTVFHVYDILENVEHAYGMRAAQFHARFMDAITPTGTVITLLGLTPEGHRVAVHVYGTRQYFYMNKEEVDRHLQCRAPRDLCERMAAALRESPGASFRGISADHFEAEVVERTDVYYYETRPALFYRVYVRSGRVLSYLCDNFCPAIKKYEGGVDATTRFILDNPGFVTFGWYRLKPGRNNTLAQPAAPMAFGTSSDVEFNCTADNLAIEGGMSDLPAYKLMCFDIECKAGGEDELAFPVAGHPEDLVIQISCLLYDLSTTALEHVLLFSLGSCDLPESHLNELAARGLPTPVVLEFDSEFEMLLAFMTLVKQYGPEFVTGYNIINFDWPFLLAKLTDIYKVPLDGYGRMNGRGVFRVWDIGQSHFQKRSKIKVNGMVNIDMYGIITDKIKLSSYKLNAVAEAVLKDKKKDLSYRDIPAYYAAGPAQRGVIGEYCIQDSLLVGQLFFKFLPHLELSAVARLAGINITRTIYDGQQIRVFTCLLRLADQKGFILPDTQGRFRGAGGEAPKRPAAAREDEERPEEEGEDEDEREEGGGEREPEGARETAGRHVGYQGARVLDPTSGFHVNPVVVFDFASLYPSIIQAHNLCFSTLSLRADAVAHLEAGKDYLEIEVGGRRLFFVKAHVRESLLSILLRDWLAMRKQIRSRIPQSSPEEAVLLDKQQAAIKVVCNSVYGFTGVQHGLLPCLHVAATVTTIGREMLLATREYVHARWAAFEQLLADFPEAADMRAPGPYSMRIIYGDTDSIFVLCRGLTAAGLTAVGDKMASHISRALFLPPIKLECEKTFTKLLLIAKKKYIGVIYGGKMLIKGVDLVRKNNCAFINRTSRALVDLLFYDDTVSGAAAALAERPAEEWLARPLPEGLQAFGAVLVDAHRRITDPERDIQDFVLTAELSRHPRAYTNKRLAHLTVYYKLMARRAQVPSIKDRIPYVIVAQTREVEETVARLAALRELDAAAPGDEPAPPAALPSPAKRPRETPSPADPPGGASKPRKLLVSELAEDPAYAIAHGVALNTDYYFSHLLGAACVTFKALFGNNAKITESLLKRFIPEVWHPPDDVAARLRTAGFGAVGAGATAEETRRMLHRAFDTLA

VZV polymerase = VZV polymerase (Varicella-zoster virus, UniProt P09252); assay: VZV polymerase assay (Table 1); type: biochemical
VZV polymerase, sequence (P09252 whole entry): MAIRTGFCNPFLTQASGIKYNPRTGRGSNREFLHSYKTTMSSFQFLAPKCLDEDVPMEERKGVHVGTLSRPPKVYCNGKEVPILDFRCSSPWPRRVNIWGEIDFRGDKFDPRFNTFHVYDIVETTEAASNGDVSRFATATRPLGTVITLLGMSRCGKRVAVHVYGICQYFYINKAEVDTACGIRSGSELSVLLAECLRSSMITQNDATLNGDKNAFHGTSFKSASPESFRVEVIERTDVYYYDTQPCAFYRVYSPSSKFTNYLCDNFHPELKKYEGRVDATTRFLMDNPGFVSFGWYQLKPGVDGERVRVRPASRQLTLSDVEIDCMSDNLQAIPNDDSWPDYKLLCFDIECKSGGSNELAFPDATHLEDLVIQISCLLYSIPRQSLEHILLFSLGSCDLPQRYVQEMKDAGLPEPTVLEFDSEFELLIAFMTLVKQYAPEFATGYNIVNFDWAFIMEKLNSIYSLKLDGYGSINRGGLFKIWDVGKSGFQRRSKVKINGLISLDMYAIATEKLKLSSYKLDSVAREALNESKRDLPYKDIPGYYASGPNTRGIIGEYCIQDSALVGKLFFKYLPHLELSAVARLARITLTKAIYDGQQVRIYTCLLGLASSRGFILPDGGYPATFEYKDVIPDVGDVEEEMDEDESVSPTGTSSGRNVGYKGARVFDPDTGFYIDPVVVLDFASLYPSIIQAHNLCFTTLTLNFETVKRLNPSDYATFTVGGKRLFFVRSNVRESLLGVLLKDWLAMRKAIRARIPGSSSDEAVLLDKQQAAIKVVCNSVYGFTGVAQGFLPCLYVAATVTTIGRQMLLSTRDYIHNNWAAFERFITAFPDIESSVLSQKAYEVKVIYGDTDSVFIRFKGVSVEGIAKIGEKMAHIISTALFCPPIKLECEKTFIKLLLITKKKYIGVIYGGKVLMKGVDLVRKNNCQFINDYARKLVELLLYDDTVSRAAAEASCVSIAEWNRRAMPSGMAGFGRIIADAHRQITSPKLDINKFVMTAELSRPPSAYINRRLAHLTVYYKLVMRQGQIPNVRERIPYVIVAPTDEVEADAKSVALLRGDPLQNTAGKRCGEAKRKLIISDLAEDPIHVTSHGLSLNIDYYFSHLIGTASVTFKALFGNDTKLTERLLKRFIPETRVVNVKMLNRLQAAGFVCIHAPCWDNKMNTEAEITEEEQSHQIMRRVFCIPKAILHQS

[1] = HCMV polymerase, SPA, modified assay: compounds in 100% DMSO, 4.5 mM DTT

T1 sequence (P08546 whole entry): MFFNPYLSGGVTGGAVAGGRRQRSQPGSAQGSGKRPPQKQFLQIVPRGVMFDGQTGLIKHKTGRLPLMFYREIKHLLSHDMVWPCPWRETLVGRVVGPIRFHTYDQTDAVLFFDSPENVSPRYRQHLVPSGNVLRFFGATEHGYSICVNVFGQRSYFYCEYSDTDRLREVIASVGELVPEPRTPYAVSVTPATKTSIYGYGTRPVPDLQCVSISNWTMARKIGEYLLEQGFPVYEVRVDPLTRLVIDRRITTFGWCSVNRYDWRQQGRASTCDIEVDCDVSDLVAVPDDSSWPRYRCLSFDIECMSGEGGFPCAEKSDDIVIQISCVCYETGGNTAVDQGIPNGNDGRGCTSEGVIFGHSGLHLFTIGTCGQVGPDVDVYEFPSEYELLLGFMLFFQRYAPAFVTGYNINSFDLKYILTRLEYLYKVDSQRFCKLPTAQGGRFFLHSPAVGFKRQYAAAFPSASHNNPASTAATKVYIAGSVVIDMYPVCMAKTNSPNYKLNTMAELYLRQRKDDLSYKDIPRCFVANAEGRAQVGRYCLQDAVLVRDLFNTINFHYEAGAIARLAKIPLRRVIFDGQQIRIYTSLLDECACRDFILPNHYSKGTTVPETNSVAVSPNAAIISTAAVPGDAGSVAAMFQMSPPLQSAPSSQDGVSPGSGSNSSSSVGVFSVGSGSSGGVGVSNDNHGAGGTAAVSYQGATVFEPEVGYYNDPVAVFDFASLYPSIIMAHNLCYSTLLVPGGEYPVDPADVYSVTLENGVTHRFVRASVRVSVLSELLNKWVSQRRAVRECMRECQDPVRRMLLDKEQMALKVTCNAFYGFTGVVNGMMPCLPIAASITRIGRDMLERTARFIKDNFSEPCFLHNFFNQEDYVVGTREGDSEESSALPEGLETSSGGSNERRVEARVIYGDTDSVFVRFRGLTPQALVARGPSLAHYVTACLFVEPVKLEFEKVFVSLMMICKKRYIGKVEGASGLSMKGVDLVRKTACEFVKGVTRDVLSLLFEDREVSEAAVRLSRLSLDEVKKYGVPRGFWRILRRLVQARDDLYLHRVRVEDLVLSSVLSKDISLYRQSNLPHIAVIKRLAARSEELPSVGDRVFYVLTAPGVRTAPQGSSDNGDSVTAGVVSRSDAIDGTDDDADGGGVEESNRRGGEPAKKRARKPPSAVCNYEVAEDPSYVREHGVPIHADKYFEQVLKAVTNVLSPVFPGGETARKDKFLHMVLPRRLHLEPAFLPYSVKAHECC

Compound `Cn1cc(C(=O)NCc2ccc(Cl)cc2)c(=O)c2cc(CCCO)cc(OCCO)c21` [Example 4] has an IC50 (HCMV polymerase; [1]) of 600 nM, an IC50 (HSV polymerase) of 1000 nM and an IC50 (VZV polymerase) of 1200 nM.

With `O=C(NCc1ccc(Cl)cc1)c1cn(CCN2CCOCC2)c2ccc(C=CCO)cc2c1=O` [Example 7, N-(4-Chlorobenzyl)-6-(3-hydroxy-1-propenyl)-1-[2-(4-morpholinyl)ethyl]-4-oxo-1,4-dihydro 3-quinolinecarboxamide] the IC50 (HCMV polymerase) was 1000 nM, the IC50 (HSV polymerase) was 1100 nM and the IC50 (VZV polymerase) was 770 nM.

Compound `CCN(CC)CCn1cc(C(=O)NCc2ccc(Cl)cc2)c(=O)c2cc(C#CCO)ccc21` [Example 12, N-(4-Chlorobenzyl)-1-[2-(diethylamino)ethyl]-6-(3-hydroxy-1-propynyl)-4-oxo-1,4-dihydro-3-quinolinecarboxamide] has an IC50 (HCMV polymerase; [1]) of 2000 nM, an IC50 (HSV polymerase) of 3000 nM and an IC50 (VZV polymerase) of 1900 nM.

In the case of `O=C(NCc1ccc(Cl)cc1)c1cn(CCN2CCCCC2)c2ccc(C#CCO)cc2c1=O` [Example 14, N-(4-Chlorobenzyl)-6-(3-hydroxy-1-propynyl)-1-[2-(1-piperidinyl)ethyl]-4-oxo-1,4-dihydro-3-quinolinecarboxamide], the IC50 (HCMV polymerase) is reported as 1300 nM, the IC50 (HSV polymerase) is reported as 1200 nM and the IC50 (VZV polymerase) is reported as 1100 nM.

In the case of `CC(C)N(CCn1cc(C(=O)NCc2ccc(Cl)cc2)c(=O)c2cc(C#CCO)ccc21)C(C)C` [Example 17, N-(4-Chlorobenzyl)-1-[2-(diisopropylamino)ethyl]-6-(3-hydroxy-1-propynyl)-4-oxo-1,4-dihydro-3-quinolinecarboxamide], the IC50 (HCMV polymerase; [1]) is reported as 800 nM, the IC50 (HSV polymerase) is reported as 2000 nM and the IC50 (VZV polymerase) is reported as 1100 nM.

`O=C(NCc1ccc(Cl)cc1)c1cn(C2CC2)c2ccc(C#CCO)cc2c1=O` [Example 25, N-(4-Chlorobenzyl)-1-cyclopropyl-6-(3-hydroxy-1-propynyl)-4-oxo-1,4-dihydro-3-quinolinecarboxamide] showed an IC50 (HCMV polymerase; [1]) of 1600 nM, an IC50 (HSV polymerase) of 1600 nM and an IC50 (VZV polymerase) of 1500 nM.

For `O=C(NCc1ccc(Cl)cc1)c1cn(C2CC2)c2ccc(CCCO)cc2c1=O` [Example 26, N-(4-Chlorobenzyl)-1-cyclopropyl-6-(3-hydroxypropyl)-4-oxo-1,4-dihydro-3-quinolinecarboxamide], the IC50 (HCMV polymerase; [1]) was 530 nM, the IC50 (HSV polymerase) was 780 nM and the IC50 (VZV polymerase) was 490 nM.

With `Cn1cc(C(=O)NCc2ccc(Cl)cc2)c(=O)c2cc(C#CCO)ccc21` [Example 31, N-(4-Chlorobenzyl)-6-(3-hydroxy-1-propynyl)-1-methyl-4-oxo-1,4-dihydro-3-quinolinecarboxamide] the IC50 (HCMV polymerase; [1]) was 1100 nM, the IC50 (HSV polymerase) was 1300 nM and the IC50 (VZV polymerase) was 1000 nM.

Compound `O=C(NCc1ccc(Cl)cc1)c1cn(CCOCCO)c2ccc(C#CCO)cc2c1=O` [Example 55, N-(4-Chlorobenzyl)-1-[2-(2-hydroxyethoxy)ethyl]-6-(3-hydroxy-1-propynyl)-4-oxo-1,4-dihydro-3-quinolinecarboxamide] has an IC50 (HCMV polymerase; [1]) of 2300 nM, an IC50 (HSV polymerase) of 2400 nM and an IC50 (VZV polymerase) of 1400 nM.

Compound `CSCCCn1cc(C(=O)NCc2ccc(Cl)cc2)c(=O)c2cc(CN3CCOCC3)ccc21` [Example 61, N-(4-Chlorobenzyl)-1-[3-(methylsulfanyl)propyl]-6-(4-morpholinylmethyl)-4-oxo-1,4-dihydro-3-quinolinecarboxamide] has an IC50 (HCMV polymerase; [1]) of 1100 nM, an IC50 (HSV polymerase) of 900 nM and an IC50 (VZV polymerase) of 500 nM.

`O=C(NCc1ccc(Cl)cc1)c1cn(CC#CCO)c2ccc(CN3CCOCC3)cc2c1=O` [Example 62, N-(4-Chlorobenzyl)-1-(4-hydroxy-2-butynyl)-6-(4-morpholinylmethyl)-4-oxo-1,4-dihydro-3-quinolinecarboxamide] gave an IC50 (HCMV polymerase; [1]) of 1300 nM, an IC50 (HSV polymerase) of 1100 nM and an IC50 (VZV polymerase) of 610 nM.

Work on `C[S+]([O-])CCCn1cc(C(=O)NCc2ccc(Cl)cc2)c(=O)c2cc(CN3CCOCC3)ccc21` (stereo not shown) [Example 65, N-(4-Chlorobenzyl)-1-[3-(methylsulfinyl)propyl]-6-(4-morpholinylmethyl)-4-oxo-1,4-dihydro-3-quinolinecarboxamide] yielded an IC50 (HCMV polymerase; [1]) of 900 nM, an IC50 (HSV polymerase) of 1000 nM and an IC50 (VZV polymerase) of 630 nM.

For `CN(Cc1ccc2c(c1)c(=O)c(C(=O)NCc1ccc(Cl)cc1)cn2C)CC(O)c1ccc(O)cc1` (stereo not shown) [Example 74, N-(4-Chlorobenzyl)-6-([(2-hydroxy-2-[4-hydroxyphenyl]-ethyl) [methyl]amino]methyl)-1-methyl-4-oxo-1,4-dihydro-3-quinolinecarboxamide], the IC50 (HCMV polymerase; [1]) was 890 nM, the IC50 (HSV polymerase) was 2800 nM and the IC50 (VZV polymerase) was 1600 nM.

For `Cn1cc(C(=O)NCc2ccc(Cl)cc2)c(=O)c2cc(CN3CC(O)C3)ccc21` [Example 75, N-(4-Chlorobenzyl)-6-[(3-hydroxy-1-azetidinyl)methyl]-1-methyl-4-oxo-1,4-dihydro-3-quinolinecarboxamide], the IC50 (HCMV polymerase; [1]) was 3300 nM, the IC50 (HSV polymerase) was 4400 nM and the IC50 (VZV polymerase) was 4000 nM.

`O=C(NCc1ccc(Cl)cc1)c1cn(COCCO)c2ccc(CN3CCOCC3)cc2c1=O` [Example 107] showed an IC50 (HCMV polymerase; [1]) of 840 nM.

Compound `O=C(NCc1ccc(Cl)cc1)c1cn(C2CCOCC2)c2ccc(CN3CCOCC3)cc2c1=O` [Example 108, N-(4-Chlorobenzyl)-6-(4-morpholinylmethyl)-4-oxo-1-tetrahydro-2H-pyran-4-yl-1,4-dihydro-3-quinolinecarboxamide] has an IC50 (HCMV polymerase; [1]) of 820 nM.

In the case of `CN1CCC(n2cc(C(=O)NCc3ccc(Cl)cc3)c(=O)c3cc(CN4CCOCC4)ccc32)CC1` [Example 109, N-(4-Chlorobenzyl)-1-(1-methyl-4-piperidinyl)-6-(4-morpholinylmethyl)-4-oxo-1,4-dihydro-3-quinolinecarboxamide], the IC50 (HCMV polymerase; [1]) is reported as 480 nM.

`O=C(NCc1ccc(Cl)cc1)c1cn(C2CCNCC2)c2ccc(CN3CCOCC3)cc2c1=O` [Example 110, N-(4-Chlorobenzyl)-6-(4-morpholinylmethyl)-4-oxo-1-(4-piperidinyl)-1,4-dihydro-3-quinolinecarboxamide] gave an IC50 (HCMV polymerase; [1]) of 670 nM.

`O=C(NCc1ccc(Cl)cc1)c1cn(C2CCS(=O)(=O)CC2)c2ccc(CN3CCOCC3)cc2c1=O` [Example 111, N-(4-Chlorobenzyl)-1-(1,1-dioxohexahydro-thiopyran-4-yl)-6-(4-morpholinylmethyl)-4-oxo-1,4-dihydro-3-quinolinecarboxamide] showed an IC50 (HCMV polymerase; [1]) of 730 nM.

`O=C(NCc1ccc(Cl)cc1)c1cn(N2CCOCC2)c2ccc(CN3CCOCC3)cc2c1=O` [Example 112, N-(4-Chlorobenzyl)-1-(4-morpholinyl)-6-(4-morpholinylmethyl)-4-oxo-1,4-dihydro-3-quinolinecarboxamide] was tested, and the IC50 (HCMV polymerase; [1]) was 420 nM.

`CN1CCN(n2cc(C(=O)NCc3ccc(Cl)cc3)c(=O)c3cc(CN4CCOCC4)ccc32)CC1` [Example 113, N-(4Chlorobenzyl)-1-(4methyl-1-piperazinyl)-6-(4-morpholinylmethyl)-4-oxo-1,4-dihydro-3-quinolinecarboxamide] gave an IC50 (HCMV polymerase; [1]) of 640 nM.

`O=C(NCc1ccc(Cl)cc1)c1cn(N2CCCCC2)c2ccc(CN3CCOCC3)cc2c1=O` [Example 114, N-(4-Chlorobenzyl)-6-(4-morpholinylmethyl)-4-oxo-1-(1-piperidinyl)-1,4-dihydro-3-quinolinecarboxamide] showed an IC50 (HCMV polymerase; [1]) of 880 nM.

With `O=C(NCc1ccc(Cl)cc1)c1cn(N2CCCC2)c2ccc(CN3CCOCC3)cc2c1=O` [Example 115, N-(4-Chlorobenzyl)-6-(4-morpholinylmethyl)-4-oxo-1-(1-pyrrolidinyl)-1,4-dihydro-3-quinolinecarboxamide] the IC50 (HCMV polymerase; [1]) was 620 nM.

In the case of `COC[C@H]1CCCN1n1cc(C(=O)NCc2ccc(Cl)cc2)c(=O)c2cc(CN3CCOCC3)ccc21` [Example 116, N-(4-Chlorobenzyl)-1-[(2R)-2-(methoxymethyl)pyrrolidinyl]-6-(4-morpholinylmethyl)-4-oxo-1,4-dihydro-3-quinolinecarboxamide], the IC50 (HCMV polymerase; [1]) is reported as 14000 nM.

`CN(C)n1cc(C(=O)NCc2ccc(Cl)cc2)c(=O)c2cc(CN3CCOCC3)ccc21` [Example 117, N-(4-Chlorobenzyl)-1-(dimethylamino)-6-(4-morpholinylmethyl)-4-oxo-1,4-dihydro-3-quinolinecarboxamide] showed an IC50 (HCMV polymerase; [1]) of 1500 nM.

With `Nn1cc(C(=O)NCc2ccc(Cl)cc2)c(=O)c2cc(C#CCO)ccc21` [Example 118, 1-Amino-N-(4-chlorobenzyl)-6(3-hydroxy-1-propynyl)-4-oxo-1,4-dihydro-3-quinolinecarboxamide] the IC50 (HCMV polymerase; [1]) was 1100 nM.

With `Nn1cc(C(=O)NCc2ccc(Cl)cc2)c(=O)c2cc(CCCO)ccc21` [Example 119, 1-Amino-N-(4-chlorobenzyl)-6-(3-hydroxypropyl)-4-oxo-1,4-dihydro-3-quinolinecarboxamide] the IC50 (HCMV polymerase; [1]) was 500 nM.

For `CN(C)n1cc(C(=O)NCc2ccc(Cl)cc2)c(=O)c2cc(C#CCO)ccc21` [Example 120, N-(4-Chlorobenzyl)-1-(dimethylamino)-6-(3-hydroxy-1-propynyl)-4-oxo-1,4-dihydro-3-quinolinecarboxamide], the IC50 (HCMV polymerase; [1]) was 2500 nM.

In the case of `CN(C)n1cc(C(=O)NCc2ccc(Cl)cc2)c(=O)c2ccccc21` [Example 121, N-(4-Chlorobenzyl)-1-(dimethylamino)-4-oxo-1,4-dihydro-3-quinolinecarboxamide], the IC50 (HCMV polymerase; [1]) is reported as 3900 nM.

`C=CCOn1cc(C(=O)NCc2ccc(Cl)cc2)c(=O)c2ccccc21` [Example 122, 1-(Allyloxy)-N-(4-chlorobenzyl)-4-oxo-1,4-dihydro-3-quinolinecarboxamide] showed an IC50 (HCMV polymerase; [1]) of 2800 nM.

Work on `COn1cc(C(=O)NCc2ccc(Cl)cc2)c(=O)c2ccccc21` [Example 123, N-(4-Chlorobenzyl)-1-methoxy-4-oxo-1,4-dihydro-3-quinolinecarboxamide] yielded an IC50 (HCMV polymerase; [1]) of 8200 nM.

In the case of `O=C(NCc1ccc(Br)cc1)c1cn(N2CCOCC2)c2ccc(CN3CCOCC3)cc2c1=O` [Example 124, N-(4-Bromobenzy)-1-(4-morpholinyl)-6-(4-morpholinylmethyl)-4-oxo-1,4-dihydro-3-quinolinecarboxamide], the IC50 (HCMV polymerase; [1]) is reported as 1200 nM.

`O=C(NCc1ccc(F)cc1)c1cn(N2CCOCC2)c2ccc(CN3CCOCC3)cc2c1=O` [Example 125, N-(4-Fluorobenzyl)-1-(4-morpholinyl)-6-(4-morpholinylmethyl)-4-oxo-1,4-dihydro-3-quinolinecarboxamide] was tested, and the IC50 (HCMV polymerase; [1]) was 1100 nM.
